For one experiment, the target named is Human Factor D (Homo sapiens (Human), UniProt P00746). As to the kind of experiment: Human Factor D Assay. The experiment is classed as biochemical. The following applies: Factor D inhibition, assay of Example 10; read-out: IC5 (Stars). The method in brief:
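Serum-purified Factor D (80 nM final) preincubated 5 min at room temperature with compound in 50 mM Tris, 1 M NaCl, pH 7.5. Z-L-Lys-SBz and DTNB added at 100 μM each; A405 followed every 30 s for 30 min. IC50 from nonlinear regression of rates versus concentration.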
Sequence of Human Factor D (P00746 26-253): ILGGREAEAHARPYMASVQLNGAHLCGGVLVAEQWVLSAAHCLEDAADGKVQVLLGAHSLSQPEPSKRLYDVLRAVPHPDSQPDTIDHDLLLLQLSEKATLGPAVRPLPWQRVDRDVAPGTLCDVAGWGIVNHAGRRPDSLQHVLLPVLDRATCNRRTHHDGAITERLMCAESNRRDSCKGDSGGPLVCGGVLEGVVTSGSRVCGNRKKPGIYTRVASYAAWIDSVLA
In the case of `CC(=O)c1nn(CC(=O)N2[C@H](C(=O)N[C@@H](C)COC(F)(F)F)C[C@@]3(C)C[C@@H]23)c2ccc(-c3cnc(C)nc3)cc12` [Compound 554, (1R,3S,5R)-2-(2-(3-acetyl-5-(2-methylpyrimidin-5-yl)-1H-indazol-1-yl)acetyl)-5-methyl-N-((S)-1-(trifluoromethoxy)propan-2-yl)-2-azabicyclo[3.1.0]hexane-3-carboxamide], the IC50 is below 1000 nM.
As to `CC(=O)c1nn(CC(=O)N2[C@H](C(=O)Nc3cc(Cc4ccccc4)cc(Br)n3)C[C@@]3(C)C[C@@H]23)c2ccc(-c3cnc(C)nc3)cc12` [Compound 555, (1R,5R)-2-(2-(3-acetyl-5-(2-methylpyrimidin-5-yl)-1H-indazol-1-yl)acetyl)-N-(4-benzyl-6-bromopyridin-2-yl)-5-methyl-2-azabicyclo[3.1.0]hexane-3-carboxamide], the IC50 was below 1000 nM.
Regarding `CC(=O)c1nn(CC(=O)N2[C@H](C(=O)Nc3cc(-c4ccccc4O)cc(Br)n3)C[C@@]3(C)C[C@@H]23)c2ccc(-c3cnc(C)nc3)cc12` [Compound 556, (1R,3S,5R)-2-(2-(3-acetyl-5-(2-methylpyrimidin-5-yl)-1H-indazol-1-yl)acetyl)-N-(6-bromo-4-(2-hydroxyphenyl)pyridin-2-yl)-5-methyl-2-azabicyclo[3.1.0]hexane-3-carboxamide], the IC50 was below 1000 nM.
Turning to `CC(=O)c1nn(CC(=O)N2[C@H](C(=O)Nc3cc(COCc4ccccc4)cc(Br)n3)C[C@@]3(C)C[C@@H]23)c2ccc(-c3cnc(C)nc3)cc12` [Compound 557, (1R,3S,5R)-2-(2-(3-acetyl-5-(2-methylpyrimidin-5-yl)-1H-indazol-1-yl)acetyl)-N-(4-6-bromopyridin-2-yl)-5-methyl-2-azabicyclo[3.1.0]hexane-3-carboxamide], the IC50 was below 1000 nM.
With `CC(=O)c1nn(CC(=O)N2[C@H](C(=O)N[C@H](C)c3ccccc3)C[C@@]3(C)C[C@@H]23)c2ccc(-c3cnc(C)nc3)cc12` [Compound 558, (1R,3S,5R)-2-(2-(3-acetyl-5-(2-methylpyrimidin-5-yl)-1H-indazol-1-yl)acetyl)-5-methyl-N-((R)-1-phenylethyl)-2-azabicyclo[3.1.0]hexane-3-carboxamide], the IC50 was below 1000 nM.
Same read-out and setting: next, `CC(=O)c1nn(CC(=O)N2[C@H](C(=O)NC/C(F)=C(/C)c3ccccc3)C[C@@]3(C)C[C@@H]23)c2ccc(-c3cnc(C)nc3)cc12` [Compound 559, (1R,3S,5R)-2-(2-(3-acetyl-5-(2-methylpyrimidin-5-yl)-1H-indazol-1-yl)acetyl)-N-((E)-2-fluoro-3-phenylbut-2-en-1-yl)-5-methyl-2-azabicyclo[3.1.0]hexane-3-carboxamide]: below 1000 nM.
`CC(=O)c1cn(CC(=O)N2[C@H](C(=O)NC/C(F)=C(/C)c3ccccc3)C[C@@]3(C)C[C@@H]23)c2cnc(-c3cnc(C)nc3)cc12` [Compound 560]: the IC50 was below 1000 nM.
The same measure, in the same setting: next, `CC(=O)c1nn(CC(=O)N2[C@H](C(=O)NC/C(F)=C(/C)c3ccccc3)C[C@@]3(C)C[C@@H]23)c2c(C)cc(-c3cnc(C)nc3)cc12` [Compound 561, (1R,3S,5R)-2-(2-(3-acetyl-7-methyl-5-(2 methylpyrimidin-5-yl)-1H-indazol-1-yl)acetyl)-N-((E)-2-fluoro-3-phenylbut-2-en-1-yl)-5-methyl-2-azabicyclo[3.1.0]hexane-3-carboxamide]: below 1000 nM; `Cc1ncc(-c2ccc3c(c2)c(C(=O)NC(C)C)nn3CC(=O)N2[C@H](C(=O)Nc3nc(Br)ccc3C)C[C@@]3(C)C[C@@H]23)cn1` [Compound 562, 1-(2-((1R,3S,5R)-3-((6-bromo-3-methylpyridin-2-yl)carbamoyl)-5-methyl-2-azabicyclo[3.1.0]hexan-2-yl)-2-oxoethyl)-N-isopropyl-5-(2-methylpyrimidin-5-yl)-1H-indazole-3-carboxamide]: 1000 to 10000 nM.
Consider `CC(=O)c1nn(CC(=O)N2[C@H](C(=O)Nc3cc(CC(F)(F)F)cc(Br)n3)C[C@@]3(C)C[C@@H]23)c2ccc(-c3cnc(C)nc3)cc12` [Compound 572, (1R,3S,5R)-2-(2-(3-acetyl-5-(2-methylpyrimidin-5-yl)-1H-indazol-1-yl)acetyl)-N-(6-bromo-4-(2,2,2-trifluoroethyl)pyridin-2-yl)-5-methyl-2-azabicyclo[3.1.0]hexane-3-carboxamide], for which the IC50 was below 1000 nM.
As for `CC(=O)c1nn(CC(=O)N2[C@H](C(=O)NCCOC(F)(F)F)C[C@@]3(C)C[C@@H]23)c2ccc(-c3cnc(C)nc3)cc12` [Compound 579, (1R,3S,5R)-2-(2-(3-acetyl-5-(2-methylpyrimidin-5-yl)-1H-indazol-1-yl)acetyl)-5-methyl-N-(2-(trifluoromethoxy)ethyl)-2-azabicyclo[3.1.0] hexane-3-carboxamide], the IC50 is below 1000 nM.
As for `CC(=O)c1nn(CC(=O)N2[C@H](C(=O)N[C@@H](C)CC(C)(C)C)C[C@@]3(C)C[C@@H]23)c2ccc(-c3cnc(C)nc3)cc12` [Compound 588, (1R,3S,5R)-2-(2-(3-acetyl-5-(2-methylpyrimidin-5-yl)-1H-indazol-1-yl)acetyl)-N-((S)-4,4-dimethylpentan-2-yl)-5-methyl-2-azabicyclo[3.1.0]hexane-3-carboxamide], the IC50 fell in the range of 1000 to 10000 nM.
Take `CC(=O)c1nn(CC(=O)N2[C@H](C(=O)N[C@H](C)CC(C)(C)C)C[C@@]3(C)C[C@@H]23)c2ccc(-c3cnc(C)nc3)cc12` [Compound 589, (1R,3S,5R)-2-(2-(3-acetyl-5-(2-methylpyrimidin-5-yl)-1H-indazol-1-yl)acetyl)-N-((R)-4,4-dimethylpentan-2-yl)-5-methyl-2-azabicyclo[3.1.0]hexane-3-carboxamide]: the IC50 is below 1000 nM.
For `CC(=O)c1nn(CC(=O)N2[C@H](C(=O)N[C@@H](C)c3cccc(Cl)c3F)C[C@@]3(C)C[C@@H]23)c2ccc(-c3cnc(C)nc3)cc12` [Compound 590, (1R,3S,5R)-2-(2-(3-acetyl-5-(2-methylpyrimidin-5-yl)-1H-indazol-1-yl)acetyl)-N-((S)-1-(3-chloro-2-fluorophenyl)ethyl)-5-methyl-2-azabicyclo[3.1.0]hexane-3-carboxamide], the IC50 is below 1000 nM.
`CC(=O)c1nn(CC(=O)N2[C@H](C(=O)NCc3ccncn3)C[C@@]3(C)C[C@@H]23)c2c(C)cc(-c3cnc(C)nc3)cc12` [Compound 592, (1R,3S,5R)-2-(2-(3-acetyl-7-methyl-5-(2-methylpyrimidin-5-yl)-1H-indazol-1-yl)acetyl)-5-methyl-N-(pyrimidin-4-ylmethyl)-2-azabicyclo[3.1.0]hexane-3-carboxamide]: the IC50 was 1000 to 10000 nM.
Take `CC(=O)c1nn(CC(=O)N2[C@H](C(=O)N[C@@H](C)c3ccc(C)cc3)C[C@@]3(C)C[C@@H]23)c2ccc(-c3cnc(C)nc3)cc12` [Compound 598, (1R,3S,5R)-2-(2-(3-acetyl-5-(2-methylpyrimidin-5-yl)-1H-indazol-1-yl)acetyl)-5-methyl-N-((S)-1-(p-tolyl)ethyl)-2-azabicyclo[3.1.0]hexane-3-carboxamide]: the IC50 was 1000 to 10000 nM.
Consider `CC(=O)c1nn(CC(=O)N2[C@H](C(=O)N[C@@H](C)c3cccc(Cl)c3)C[C@@]3(C)C[C@@H]23)c2ccc(-c3cnc(C)nc3)cc12` [Compound 599, (1R,3S,5R)-2-(2-(3-acetyl-5-(2-methylpyrimidin-5-yl)-1H-indazol-1-yl)acetyl)-N-((S)-1-(3-chlorophenyl)ethyl)-5-methyl-2-azabicyclo[3.1.0]hexane-3-carboxamide], for which the IC50 was below 1000 nM.
In the case of `CC(=O)c1nn(CC(=O)N2[C@H](C(=O)N[C@@H](C)c3ccccc3F)C[C@@]3(C)C[C@@H]23)c2ccc(-c3cnc(C)nc3)cc12` [Compound 600, (1R,3S,5R)-2-(2-(3-acetyl-5-(2-methylpyrimidin-5-yl)-1H-indazol-1-yl)acetyl)-N-((S)-1-(2-fluorophenyl)ethyl)-5-methyl-2-azabicyclo[3.1.0]hexane-3-carboxamide], the IC50 is below 1000 nM.
Regarding `CC(=O)c1nn(CC(=O)N2[C@H](C(=O)N[C@H](C)c3cccc(Cl)c3F)C[C@@]3(C)C[C@@H]23)c2ccc(-c3cnc(C)nc3)cc12` [Compound 601, (1R,3S,5R)-2-(2-(3-acetyl-5-(2-methylpyrimidin-5-yl)-1H-indazol-1-yl)acetyl)-N-((R)-1-(3-chloro-2-fluorophenyl)ethyl)-5-methyl-2-azabicyclo[3.1.0]hexane-3-carboxamide], the IC50 is below 1000 nM.
Same read-out and setting: the same measure for `CC(=O)c1nn(CC(=O)N2[C@H](C(=O)NCCC3CCOCC3)C[C@@]3(C)C[C@@H]23)c2c(C)cc(-c3cnc(C)nc3)cc12` [Compound 606, (1R,3S,5R)-2-(2-(3-acetyl-7-methyl-5-(2-methylpyrimidin-5-yl)-1H-indazol-1-yl)acetyl)-5-methyl-N-(2-(tetrahydro-2H-pyran-4-yl)ethyl)-2-azabicyclo[3.1.0]hexane-3-carboxamide]: 1000 to 10000 nM; for `CC(=O)c1nn(CC(=O)N2[C@H](C(=O)NCCN3CCOCC3)C[C@@]3(C)C[C@@H]23)c2c(C)cc(-c3cnc(C)nc3)cc12` [Compound 607, (1R,3S,5R)-2-(2-(3-acetyl-7-methyl-5-(2-methylpyrimidin-5-yl)-1H-indazol-1-yl)acetyl)-5-methyl-N-(2-morpholinoethyl)-2-azabicyclo[3.1.0]hexane-3-carboxamide]: 1000 to 10000 nM.

The experiment is the same for the next values; noted with them: Table 8; Factor D 80 nM, substrate Z-L-Lys-SBz; read-out: IC50.
On to `CCC(C)NC(=O)c1nn(CC(=O)N2[C@H](C(=O)Nc3nc(Br)ccc3C)C[C@@]3(C)C[C@@H]23)c2ccc(-c3cnc(C)nc3)cc12` (stereo partly drawn) [Compound 569, 1-(2-((1R,3S,5R)-3-((6-bromo-3-methylpyridin-2-yl)carbamoyl)-5-methyl-2-azabicyclo[3.1.0]hexan-2-yl)-2-oxoethyl)-N-(sec-butyl)-5-(2-methylpyrimidin-5-yl)-1H-indazole-3-carboxamide], for which the IC50 lay within 1000 to 10000 nM.
